Measured values taken from patent publication US10744128B2, “6-(5-membered heteroaryl)isoquinolin-3-yl-(5-membered heteroaryl) carboxamides and preparation and use thereof” (Samumed, LLC, priority 2017, dated 2020).
Read-outs that look alike come from different tables or passages of the source.

What was measured:
[1] = tested on: Wnt-responsive promoter (Sp5-Luc reporter) in SW480 colon carcinoma cells; experiment: Sp5-Luc reporter gene screening assay for Wnt activity in SW480 cells; type: cell-based, human; conditions: 36 to 48 hours, luminescence
Text: The screening assay for Wnt activity is described as follows. Reporter cell lines can be generated by stably transducing cancer cell lines (e.g., colon cancer) or primary cells (e.g., IEC-6 intestinal cells) with a lentiviral construct that includes a Wnt-responsive promoter driving expression of the firefly luciferase gene.
SW480 colon carcinoma cells were transduced with a lentiviral vector expressing luciferase with a human Sp5 promoter consisting of a sequence of eight TCF/LEF binding sites. SW480 cells stably expressing the Sp5-Luc reporter gene and a hygromycin resistance gene were selected by treatment with 150 μg/mL of hygromycin for 7 days. These stably transduced SW480 cells were expanded in cell culture and used for all further screening activities. […] For Sp5-Luc reporter gene assays, the cells were plated at 4,000 cells/well in 384-well plates with a DMEM medium containing 1% fetal bovine serum, and 1% Penicillin-Streptomycin and incubated for 36 to 48 hours at 37° C. and 5% CO2. Following incubation, 15 μl of BriteLite Plus luminescence reagent (Perkin Elmer) was added to each well of the 384-well assay plates. The plates were placed on an orbital shaker for 2 min and then luminescence was quantified using the Envision (Perkin Elmer) plate reader. Readings were normalized to DMSO only treated cells, and normalized activities were utilized for EC50 calculations using the dose-response log (inhibitor) vs. response −variable slope (four parameters) nonlinear regression feature available in GraphPad Prism 5.0 (or Dotmatics).

recombinant GSK3β kinase = recombinant GSK3β kinase (Homo sapiens (Human), UniProt P49841); experiment: GSK3β kinase assay (Ser/Thr 09 peptide Z-lyte, FRET); type: biochemical
[2] = tested on: SW480 colon carcinoma cells; experiment: Cell viability assay (CellTiter-Glo) in SW480 cells; type: cell-based, human; conditions: four days
Method: SW480 colon carcinoma cells were transduced with a lentiviral vector expressing luciferase with a human Sp5 promoter consisting of a sequence of eight TCF/LEF binding sites. SW480 cells stably expressing the Sp5-Luc reporter gene and a hygromycin resistance gene were selected by treatment with 150 µg/mL of hygromycin for 7 days. These stably transduced SW480 cells were expanded in cell culture and used for all further screening activities.
For the Cell Viability Assays, the cells were plated at 2,000 cells/well in 384-well plates with a DMEM medium containing 1% fetal bovine serum, and 1% Penicillin-Streptomycin and incubated for […] at 37° C. and 5% CO2. Eight replicates of DMSO-treated cells served as controls and cells treated with compound were performed in duplicate.
After incubation, 10 μL of CellTiter-Glo (Promega) was added to each well allowed to incubate for approximately 12 minutes. This reagent “results in cell lysis and generation of a luminescent signal proportional to the amount of ATP present. The amount of ATP is directly proportional to the number of cells present in culture, in agreement with previous reports. The CellTiter-Glo® Assay generates a “glow-type” luminescent signal, produced by the luciferase reaction (Promega.com)”.

[3] = tested on: primary human fibroblasts derived from IPF patients (LL29 cells), α-smooth muscle actin; experiment: Inhibition of fibrotic process: αSMA in TGF-β1 treated LL29 fibroblasts; type: cell-based; conditions: for EC50: LL29 cells, TGF-β1 20 ng/mL, 4 days, % cells positive for αSMA; for inhibition at 10 µM: read-out: percent inhibition at 10 μM
Method: Representative compounds were screened using primary human fibroblasts (derived from IPF patients) treated with TGF-β1 to determine their ability to inhibit the fibrotic process.
LL29 cells were plated at 1,500 cells/well in 70 μL/well F12 medium supplemented with 1% Fetal Bovine Serum. […] Wells treated with TGF-β1 and containing DMSO were used as positive control, and cells with only DMSO were negative control. […] Following incubation for 4 days, SYTOX green nucleic acid stain (Life Technologies [Thermo Fisher Scientific]) was added to the wells at a final concentration of 1 μM and incubated at room temperature for 30 min.

IL-6 = IL-6 inhibition in LPS-stimulated human peripheral blood mononuclear cells (HTRF); type: cell-based; conditions: for EC50: huPBMCs, LPS 50 ng/mL, 22 hours, IL-6 HTRF; for inhibition at 10 µM: read-out: percent inhibition at 10 μM
Method: Fresh Normal PB MNC (Catalog # PB001, AllCells, Alameda, Calif.) were shipped overnight at 4° C. and resuspended in Roswell Park Memorial Institute (RPMI) 1640 Medium, with GlutaMAX Supplement (Catalog #61870127, ThermoFisher Scientific, Waltham, Mass.) supplemented with 1% Penicillin-Streptomycin (Catalog #15140163, ThermoFisher Scientific, Waltham, Mass.) and 1% fetal bovine serum (FBS) (Catalog #16140089, ThermoFisher Scientific, Waltham, Mass.) assay media.
Fresh normal human peripheral blood mononuclear cells (huPBMCs) were resuspended in 1% FBS-RPMI assay media with 1% Penicillin-Streptomycin 1% to a cell concentration of 1×10e6 cells/mL. […] 50 ng/mL of Lipopolysaccharides from Escherichia coli 0111:B4 (Catalog #L5293-2ML, Sigma-Aldrich, St. Louis, Mo.) was added after 2 hours and cells were incubated for another 22 hours at 37° C.-5% CO2. After 22 hour incubation, a mixture of anti-IL6 XL665 and anti-IL-6 Cryptate diluted in reconstitution buffer (Catalog #62IL6PEC, Cisbio Inc., Bedford, Mass.) was added to each well. Following incubation for 3 hours at room temperature, Homogeneous Time-Resolved Fluorescence (HTRF) was measured using the Envision (Perkin Elmer, Shelton, Conn.) at 665 nm and […]. The ratio of fluorescence at 665 nm to 620 nm was used as a readout for IL-6 quantification. All samples were processed in duplicate. Readings were normalized to DMSO treated cells and normalized activities were utilized for EC50 calculations. EC50 was determined using software generated by Dotmatics Limited (Windhill Bishops Stortford Herts, UK) using the Levenberg-Marquardt 4 parameter fitting procedure with finite different gradients.

[4] = biological target: recombinant DYRK1A kinase (Homo sapiens (Human), UniProt Q13627); experiment: DYRK1A kinase assay (Ser/Thr 18 peptide Z-lyte, FRET)
Method: Each compound was dissolved in DMSO as a 10 mM stock and used to prepare compound source plates.
This is a non-radioactive assay using fluorescence resonance energy transfer (FRET) between coumarin and fluorescein to detect kinase activity which is represented as a ratio of coumarin emission/fluorescein emission.
The mixture was allowed to incubate with the representative compounds for one hour at room temperature. All reactions were performed in duplicate. Unphosphorylated (“0% Control”) and phosphorylated (“100% control”) forms of Ser/Thr 18 served as control reactions. Additionally, an 11-point dose-response curve of Staurosporine (1 uM top) was run to serve as a positive compound control.
After incubation, Development Reagent A was diluted in Development Buffer then added to the reaction and allowed to further incubate for one hour at room temperature.
Dose-response curves were generated and inhibitory concentration (IC50) values were calculated using non-linear regression curve fit in the Dotmatics' Studies Software (Bishops Stortford, UK).

[5] = GSK3β kinase, 46 μM ATP, one hour, method calls values IC50
[6] = DYRK1A kinase, 30 μM ATP, one hour, method calls values IC50

Sequence of recombinant GSK3β kinase (P49841 whole entry): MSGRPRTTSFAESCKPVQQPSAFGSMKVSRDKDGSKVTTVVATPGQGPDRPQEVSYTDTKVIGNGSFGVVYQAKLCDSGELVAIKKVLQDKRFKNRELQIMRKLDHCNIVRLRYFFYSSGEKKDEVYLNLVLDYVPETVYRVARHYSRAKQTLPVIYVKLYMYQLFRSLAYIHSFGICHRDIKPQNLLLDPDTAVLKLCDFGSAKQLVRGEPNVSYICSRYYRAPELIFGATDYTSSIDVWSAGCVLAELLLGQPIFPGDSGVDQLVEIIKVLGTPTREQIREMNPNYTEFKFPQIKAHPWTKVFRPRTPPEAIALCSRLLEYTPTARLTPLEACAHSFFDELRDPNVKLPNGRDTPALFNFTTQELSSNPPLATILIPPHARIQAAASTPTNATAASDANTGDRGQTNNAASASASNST

Compound	EC50 ([1]; Homo sapiens)	EC50 (recombinant GSK3β kinase; [5])	EC50 ([2]; Homo sapiens, 96 h)	EC50 (IL-6; Homo sapiens, PBMC)	EC50 [4, 6]	EC50 [1]	EC50 [2]	EC50 (IL-6)	EC50 (recombinant GSK3β kinase)	EC50 [4]	EC50 ([3]; Homo sapiens, Fibroblast, 96 h)	EC50 [3]	inhibition at 10 µM ([3]; Homo sapiens, Fibroblast)	inhibition at 10 µM (IL-6; Homo sapiens, PBMC)
CN1CCC(n2cc(C(=O)Nc3cc4cc(-c5cnn(C)c5)ccc4cn3)cn2)CC1 [Compound 4, N-(6-(1-Methyl-1H-pyrazol-4-yl)isoquinolin-3-yl)-1-(1-methylpiperidin-4-yl)-1H-pyrazole-4-carboxamide]	14 nM	1480 nM	35 nM	89 nM	2 nM	–	–	–	–	–	94 nM	–	–	–
N-(6-(1-(Methyl-d3)-1H-pyrazol-4-yl)isoquinolin-3-yl)-2-(1-methylpiperidin-4-yl)oxazole-4-carboxamide [Compound 17]	–	2930 nM	–	–	16 nM	111 nM	128 nM	6200 nM	–	–	–	173 nM	–	–
Cn1cc(-c2ccc3cnc(NC(=O)c4cnn(C5CCN(C6CC6)CC5)c4)cc3c2)cn1 [Compound 9, 1-(1-cyclopropylpiperidin-4-yl)-N-(6-(1-methyl-1H-pyrazol-4-yl)isoquinolin-3-yl)-1H-pyrazole-4-carboxamide]	39 nM	1660 nM	104 nM	1100 nM	2 nM	–	–	–	–	–	> 10000 nM	–	33.4%	–
CCN1CCC(n2cc(C(=O)Nc3cc4cc(-c5cnn(C)c5)ccc4cn3)cn2)CC1 [Compound 6, 1-(1-Ethylpiperidin-4-yl)-N-(6-(1-methyl-1H-pyrazol-4-yl)isoquinolin-3-yl)-1H-pyrazole-4-carboxamide]	15 nM	1700 nM	32 nM	129 nM	3 nM	–	–	–	–	–	69 nM	–	–	–
CN1CCN(c2nc(C(=O)Nc3cc4cc(-c5cnn(C)c5)ccc4cn3)co2)CC1 [Compound 23, N-(6-(1-Methyl-1H-pyrazol-4-yl)isoquinolin-3-yl)-2-(4-methylpiperazin-1-yl)oxazole-4-carboxamide]	1020 nM	2180 nM	3730 nM	> 10000 nM	18 nM	–	–	–	–	–	325 nM	–	–	5.5%
Cc1nnc(-c2ccc3cnc(NC(=O)c4coc(C5CCN(C)CC5)n4)cc3c2)s1 [Compound 69, N-(6-(5-Methyl-1,3,4-thiadiazol-2-yl)isoquinolin-3-yl)-2-(1-methylpiperidin-4-yl)oxazole-4-carboxamide]	2150 nM	6770 nM	1290 nM	> 10000 nM	527 nM	–	–	–	–	–	> 10000 nM	–	43.9%	2.3%
2-(1-Isopropylpiperidin-4-yl)-N-(6-(1-methyl-1H-pyrazol-4-yl)isoquinolin-3-yl)thiazole-4-carboxamide [Compound 39]	–	3710 nM	–	–	26 nM	70 nM	1190 nM	7590 nM	–	–	–	3040 nM	–	–
Cn1cc(-c2ccc3cnc(NC(=O)c4cnn(C5CCNCC5)c4)cc3c2)nn1 [Compound 29, N-(6-(1-Methyl-1H-1,2,3-triazol-4-yl)isoquinolin-3-yl)-1-(piperidin-4-yl)-1H-pyrazole-4-carboxamide]	30 nM	230 nM	60 nM	366 nM	3 nM	–	–	–	–	–	135 nM	–	–	–

Further lines, with some results ahead:

EC50 ([1]; Homo sapiens)	EC50 (recombinant GSK3β kinase; [5])	EC50 ([2]; Homo sapiens, 96 h)	EC50 (IL-6; Homo sapiens, PBMC)	EC50 [4, 6]	EC50 [1]	EC50 [2]	EC50 (IL-6)	EC50 (recombinant GSK3β kinase)	EC50 [4]	Compound	EC50 ([3]; Homo sapiens, Fibroblast, 96 h)	EC50 [3]	inhibition at 10 µM ([3]; Homo sapiens, Fibroblast)	inhibition at 10 µM (IL-6; Homo sapiens, PBMC)
30 nM	628 nM	48 nM	361 nM	6 nM	–	–	–	–	–	Cc1nnc(-c2ccc3cnc(NC(=O)c4cnn(C5CCN(C)CC5)c4)cc3c2)s1 [Compound 65, N-(6-(5-Methyl-1,3,4-thiadiazol-2-yl)isoquinolin-3-yl)-1-(1-methylpiperidin-4-yl)-1H-pyrazole-4-carboxamide]	219 nM	–	–	–
122 nM	666 nM	414 nM	2640 nM	74 nM	–	–	–	–	–	Cc1nnc(-c2ccc3cnc(NC(=O)c4coc(C5CCNCC5)n4)cc3c2)s1 [Compound 68, N-(6-(5-Methyl-1,3,4-thiadiazol-2-yl)isoquinolin-3-yl)-2-(piperidin-4-yl) oxazole-4-carboxamide]	2580 nM	–	–	–
95 nM	2750 nM	240 nM	> 10000 nM	6 nM	–	–	–	–	–	CC(C)N1CCC(n2cc(C(=O)Nc3cc4cc(-c5cnn(C)c5)ccc4cn3)nn2)CC1 [Compound 14, 1-(1-Isopropylpiperidin-4-yl)-N-(6-(1-methyl-1H-pyrazol-4-yl)isoquinolin-3-yl)-1H-1,2,3-triazole-4-carboxamide]	410 nM	–	–	46%
466 nM	641 nM	844 nM	> 10000 nM	4 nM	–	–	–	–	–	Cc1ncc(C(=O)Nc2cc3cc(-c4cncn4C)ccc3cn2)n1C [Compound 51, 1,2-Dimethyl-N-(6-(1-methyl-1H-imidazol-5-yl)isoquinolin-3-yl)-1H-imidazole-5-carboxamide]	> 10000 nM	–	6.5%	10.9%
115 nM	–	113 nM	1070 nM	–	–	–	–	769 nM	16 nM	[2H]C([2H])([2H])n1cc(-c2ccc3cnc(NC(=O)c4coc(C5CCNCC5)n4)cc3c2)cn1 [Compound 16, N-(6-(1-(Methyl-d3)-1H-pyrazol-4-yl)isoquinolin-3-yl)-2-(piperidin-4-yl) oxazole-4-carboxamide]	312 nM	–	–	–
2310 nM	9990 nM	3070 nM	8920 nM	5 nM	–	–	–	–	–	Cc1csc(C(=O)Nc2cc3cc(-c4cncn4C)ccc3cn2)n1 [Compound 56, 4-Methyl-N-(6-(1-methyl-1H-imidazol-5-yl)isoquinolin-3-yl)thiazole-2-carboxamide]	3190 nM	–	–	–
